How the values were obtained:
Assay type in all cases: binding
[1] = molecular target: T1, poly-histidine affinity tag containing fusion protein (Oligomycin sensitivity conferring protein; OSCP) (Homo sapiens, UniProt P48047); assay: Gel detection of His-tagged OSCP followed by SYPRO Ruby total protein stain (FIG. 2, 3); settings: staining solution containing nickel ions; compared with SYPRO Ruby total protein stain
T1 construct: poly-histidine; made in house
T1 sequence (P48047 24-213): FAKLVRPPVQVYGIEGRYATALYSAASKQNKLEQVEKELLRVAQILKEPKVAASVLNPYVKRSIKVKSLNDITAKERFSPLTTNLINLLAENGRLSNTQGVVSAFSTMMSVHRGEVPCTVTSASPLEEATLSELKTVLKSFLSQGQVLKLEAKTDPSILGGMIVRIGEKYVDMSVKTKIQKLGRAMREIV
Description: (§1) FIG. 2: FIG. 2A is a graph showing the detection of a poly-histidine affinity tag containing fusion protein (Oligomycin sensitivity conferring protein; OSCP) labeled with Compound 2 in a staining solution containing nickel ions followed by the detection of (shown in FIG. 2B) total protein using the total protein stain SYPRO® Ruby.
as §1, with “3:” for “2:”, “3A” for “2A”, “15” for “2”, “3B)” for “2B)”
Following separation of the proteins on a SDS-polyacrylamide gel, the gels were fixed for 20 minutes in 100 ml of 50% ethanol/7% acetic acid and then fixed overnight in 100 ml of fresh fixative solution to ensure complete elimination of SDS. Gels were next washed 3 times for 20 minutes each in deionized water. The gels were then incubated in a staining solution containing 10 μM compound 1 or 2 μM compound 2; 100 μM NiCl2; 50 mM PIPES at pH 6.5 for 45-90 minutes in a total volume of 25 ml. Afterwards, the gels were washed 2 to 4 times for 20 minutes each in deionized water. In order to ensure that the optimal signal was documented, gels were imaged after the second and fourth wash. […]

[2] = test system: oligohistidine-tagged fusion proteins (the a subunit of Escherichia coli ATPase and porin); assay: Detection of poly-histidine affinity tag fusion proteins on a microarray; settings: 10 μM compound, 50 mM PIPES pH 6.5
Experimental: Purified oligohistidine-tagged fusion proteins (the a subunit of Escherichia coli ATPase and porin), as well as control proteins (bovine serum albumin and ovalbumin) are arrayed from a source plate (384 well plate) concentration of 0.468 μg/ml-0.240 mg/ml in water, onto HydroGel coated slides (Perkin Elmer), using the BioChip Arrayer™ (Perkin Elmer). The BioChip Arrayer™ utilizes a PiezoTip™ Dispenser consisting of 4 glass capillaries. Proteins are dispensed from the PiezoTip™ by droplets […] in volume to create array spots ˜200 microns in diameter with a 500 micron horizontal and vertical pitch (pitch=center to center spacing of spots). Proteins are arrayed in duplicate in four rows, with 10 dilution points. The resulting concentration range of the array is 166.5 pg/spot-0.325 pg/spot. For detection of oligohistine-tagged proteins, slides are incubated for 45 minutes on a rotator in 50% ethanol/7% acetic acid and then fixed overnight in fresh fixative solution to ensure complete elimination of SDS. Microarrays are next washed 3 times for 20 minutes each in deionized water. The microarrays are then incubated in a staining solution containing 10 μM Compound 2 or Compound 15; 50 mM PIPES at pH 6.5 for 45-90 minutes. Afterwards, the microarrays are washed 2 to 4 times for 20 minutes each in deionized water. […]

[3] = test system: poly-histidine affinity tag containing fusion protein (urate oxidase); assay: Gel detection of His-tagged urate oxidase with and without nickel ions (FIG. 1); settings: staining solution without nickel ions compared with nickel ions
Experimental: FIG. 1B is a graph showing data from the same experiment performed without nickel ions.
Escherichia coli BL21 DE3 cells were transformed with plasmids containing either the human ATP synthase a subunit, the d subunit (including the leader sequence) or urate oxidase. Both proteins were constructed to have a poly-histidine affinity tag comprising six histidine residues, at the N-terminus and could be induced by isopropyl-beta-D-thiogalactoside (IPTG) addition to the medium. Pre-cultures (10 ml) were grown overnight in bacterial cell culture medium (LB medium) at 37° C. with constant shaking. The next day 100 μl was transferred to 50 ml of fresh LB medium containing 0.1 mg/ml ampicillin and grown until they reached an optical density at 595 nm (OD595) of 0.8. At this point 5 ml of culture was removed and immediately frozen on dry ice. To the rest of the culture 0.8 mM IPTG was added to induce the over-expression of the subunits. Samples (5 ml each) were taken after 10 min, 30 min, 1 h, 1.5 h, 2 h, 2.5 h, and 3 h and again frozen on dry ice. […]
The resulting green-fluorescent signal produced by compound 2 was visualized using the 473 nm excitation line of the SHG laser on the Fuji FLA-3000G Fluorescence Image Analyzer (Fuji Photo, Tokyo, Japan) with the 520 nm long pass filter or the 580 nm band pass filter, respectively. […]

4,4-difluoro-4-bora-3a,4a-diaza-s-indacene-3,5-bis((6-(propionyl)amino-2-bis(carboxymethyl)amino)hexanoic acid), hexatriethylammonium salt [Compound 2]
selectivity for the poly-histidine affinity tag [1]: selective
signal on control proteins (bovine serum albumin and ovalbumin) [2]: little or no signal
sensitivity for the poly-histidine affinity tag [3]: increased sensitivity
